Assay results: the NIST ThermoML archive (doi:10.1016/j.fluid.2006.07.005)
± gives the expanded uncertainty stated by the source.

Key:
[1] = Molar enthalpy of transition or fusion; conditions: DSC
[2] = DTA

SMILES | Molar enthalpy of transition or fusion ([1]; Crystal 1) [kcal/mol] | Molar enthalpy of transition or fusion ([1]; Crystal 2) [kcal/mol] | Molar enthalpy of transition or fusion ([1]; Crystal 3) [kcal/mol] | Triple point temperature ([2]; Crystal 1) [K] | Triple point temperature ([2]; Crystal 2) [K] | Triple point temperature ([2]; Crystal 3) [K] | Glass transition temperature ([2]; Glass) [°C]
CCCCCCOCn1cc[n+](COCCCCCC)c1.F[B-](F)(F)F | 3.06 ± 0.12 | 0.167 ± 0.0717 | 0.478 ± 0.0717 | 309.5 ± 6.2 | 243.6 ± 4.9 | 142.6 ± 2.9 | –
CCCCCCOCn1cc[n+](COCCCCCC)c1.O=S(=O)([N-]S(=O)(=O)C(F)(F)F)C(F)(F)F | 3.82 ± 0.12 | – | – | 273.8 ± 5.5 | – | – | -81.3 ± 3.9
